{
  "source": "patent US20040204474A1",
  "about": "“Carvedilol-lipophilic solutions” (priority 2000, published 2004)",
  "key": {"[1]": {"test": "solubility of carvedilol in aqueous media", "format": "physicochemical", "conditions": "about pH 1-2"}, "[2]": {"test": "solubility of carvedilol in adjuvants and solvents with lipophilic character", "format": "physicochemical", "conditions": "for solubility: oil or lipid"}, "[3]": {"test": "gastrointestinal resorption after peroral administration", "format": "in vivo", "conditions": "rapid release formulations, e.g. the commercial formulation"}},
  "note": "Read-outs that look alike come from different tables or passages of the source.",
  "data": [
    {"smiles": "COc1ccccc1OCCNCC(O)COc1cccc2[nH]c3ccccc3c12", "note": "(centres unmarked) [carvedilol, 1-(4-carbazolyloxy)-3-[2-(2-methoxyphenoxy)ethyl-amino]-2-propanol]", "values": [
      {"measurement": "solubility in aqueous media, strongly acidic region", "setting": "[1]", "value": "very low solubility"},
      {"measurement": "solubility in pronounced lipophilic solvents (paraffin, petroleum ether)", "setting": "[2]", "value": "very low"},
      {"measurement": "solubility in benzyl alcohol", "setting": "[2]; at 37° C.", "value": "> 100 mg of carvedilol per ml"},
      {"measurement": "solubility", "setting": "[2]; capric acid, 37 °C, at 37° C., read-out: solubility in capric acid", "value": "> 100", "unit": "mg/mL"},
      {"measurement": "solubility", "setting": "[2]; in many cases, read-out: solubility in glycerol oleyloleate, medium chain triglycerides and natural oils", "value": "< 10", "unit": "mg/mL"},
      {"measurement": "solubility", "setting": "[2]; all named solvents, read-out: solubility in glycerol oleyloleate, medium chain triglycerides and natural oils (cod liver, soya bean, sesame, peanut, olive, cottonseed oil)", "value": "< 50", "unit": "mg/mL"},
      {"measurement": "solubility", "setting": "[2]; oleic acid, 37 °C, at 37° C., read-out: solubility in oleic acid", "value": "> 100", "unit": "mg/mL"},
      {"measurement": "resorption quota", "setting": "[3]", "value": "up to 80%"}
    ]}
  ]
}
